Reference: ChEMBL document CHEMBL3885881, “DrugMatrix”

Organism: Rattus norvegicus
Test: DrugMatrix - Regimen: Daily Repeat
Format: toxicity, organism-based, Sprague-Dawley
Design: regimen Daily Repeat, gender Male, age 6-8 weeks
Details: in vivo, po, route oral GAVAGE, […]; for CHLORIDE / CHOLESTEROL / CREATINE PHOSPHOKINASE / CREATININE / LACTATE DEHYDROGENASE / LIPASE / PHOSPHORUS / POTASSIUM / SODIUM / TOTAL BILIRUBIN / URIC ACID / ALANINE AMINOTRANSFERASE / ALBUMIN / ALKALINE PHOSPHATASE / ASPARTATE AMINOTRANSFERASE / BLOOD UREA NITROGEN / CARBON DIOXIDE: tissue Plasma; for ABSOLUTE BASOPHIL / ABSOLUTE EOSINOPHIL / ABSOLUTE LYMPHOCYTE / ABSOLUTE MONOCYTE / ABSOLUTE SEGMENTED NEUTROPHIL / BASOPHIL / EOSINOPHIL / ERYTHROCYTE COUNT / HEMATOCRIT / HEMOGLOBIN / LEUKOCYTE COUNT / LYMPHOCYTE / MEAN CORPUSCULAR HEMOGLOBIN / MEAN CORPUSCULAR HEMOGLOBIN CONCENTRATION / MEAN CORPUSCULAR VOLUME / NEUTROPHIL / NUCLEATED RED BLOOD CELLS / PLATELET COUNT: tissue Blood
[1] = 10 mg/kg, 120 h, dose level High, time 5 day
[2] = 72 h, dose 3.5 mg/Kg, dose level Low, time 3 day
[3] = 120 h, dose 3.5 mg/Kg, dose level High, time 5 day
[4] = 120 h, dose 3.5 mg/Kg, dose level Low, time 5 day
[5] = dose 3.5 mg/Kg, dose level High, time 28 day

For O=C(O)Cc1ccccc1Nc1c(Cl)cccc1Cl [DICLOFENAC], the CHLORIDE [1] was 99 MEQ/L, the CHOLESTEROL [1] was 69.33 mg/dL and the “CREATINE PHOSPHOKINASE” value [1] was 210.67 u/L. For the same molecule, the CREATININE [1] was 0.1 mg/dL, the “LACTATE DEHYDROGENASE” value [1] was 77.33 u/L and the LIPASE [1] was 9 u/L. The PHOSPHORUS [1] was 9.63 mg/dL, the POTASSIUM [1] was 5.24 MEQ/L and the SODIUM [1] was 140.7 MEQ/L. The “TOTAL BILIRUBIN” value [1] was 0.1 mg/dL, the “URIC ACID” value [1] was 0.57 mg/dL and the “ABSOLUTE BASOPHIL” value [2] was 0 CELLS/uL. The “ABSOLUTE EOSINOPHIL” value [2] was 99.33 CELLS/uL, the “ABSOLUTE LYMPHOCYTE” value [2] was 11383.33 CELLS/uL and the “ABSOLUTE MONOCYTE” value [2] was 144 CELLS/uL. The “ABSOLUTE SEGMENTED NEUTROPHIL” value [2] was 540 CELLS/uL, the BASOPHIL [2] was 0% and the EOSINOPHIL [2] was 0.67%. For the same molecule, the “ERYTHROCYTE COUNT” value [2] was 5.83 x10E6/uL, the HEMATOCRIT [2] was 36.37% and the HEMOGLOBIN [2] was 14 G/DL. For the same molecule, the “LEUKOCYTE COUNT” value [2] was 12.17 x10E3/uL, the LYMPHOCYTE [2] was 92.67% and the “MEAN CORPUSCULAR HEMOGLOBIN” value [2] was 24.03 pg. The “MEAN CORPUSCULAR HEMOGLOBIN CONCENTRATION” value [2] was 38.47 G/DL, the “MEAN CORPUSCULAR VOLUME” value [2] was 62.37 fL and the NEUTROPHIL [2] was 5.33%. For the same molecule, the “NUCLEATED RED BLOOD CELLS” value [2] was 0 /100WBC, the “PLATELET COUNT” value [2] was 741.67 x10E3/uL and the “ALANINE AMINOTRANSFERASE” value [2] was 65.67 u/L. The ALBUMIN [2] was 4.03 G/DL, the “ALKALINE PHOSPHATASE” value [2] was 385.67 u/L and the “ASPARTATE AMINOTRANSFERASE” value [2] was 76.33 u/L. The “BLOOD UREA NITROGEN” value [2] was 14 mg/dL, the “CARBON DIOXIDE” value [2] was 34 mmol/L and the CHLORIDE [2] was 101 MEQ/L. The CHOLESTEROL [2] was 82.33 mg/dL, the “CREATINE PHOSPHOKINASE” value [2] was 146 u/L and the CREATININE [2] was 0.13 mg/dL. For the same molecule, the “LACTATE DEHYDROGENASE” value [2] was 92.67 u/L, the LIPASE [2] was 12.33 u/L and the PHOSPHORUS [2] was 9.37 mg/dL. For the same molecule, the POTASSIUM [2] was 5.57 MEQ/L, the SODIUM [2] was 145.37 MEQ/L and the “TOTAL BILIRUBIN” value [2] was 0.2 mg/dL. The “URIC ACID” value [2] was 0.93 mg/dL, the BASOPHIL [3] was 0.32% and the EOSINOPHIL [3] was 0.48%. For the same molecule, the “ERYTHROCYTE COUNT” value [3] was 7.46 x10E6/uL, the HEMATOCRIT [3] was 47.98% and the HEMOGLOBIN [3] was 15.12 G/DL. For the same molecule, the “LEUKOCYTE COUNT” value [3] was 9.78 x10E3/uL, the LYMPHOCYTE [3] was 81.22% and the “MEAN CORPUSCULAR HEMOGLOBIN” value [3] was 20.28 pg. For the same molecule, the “MEAN CORPUSCULAR HEMOGLOBIN CONCENTRATION” value [3] was 31.52 G/DL, the “MEAN CORPUSCULAR VOLUME” value [3] was 64.32 fL and the NEUTROPHIL [3] was 15.22%. The “PLATELET COUNT” value [3] was 1323.2 x10E3/uL, the “ABSOLUTE BASOPHIL” value [4] was 0 CELLS/uL and the “ABSOLUTE EOSINOPHIL” value [4] was 66 CELLS/uL. The “ABSOLUTE LYMPHOCYTE” value [4] was 7679.67 CELLS/uL, the “ABSOLUTE MONOCYTE” value [4] was 26 CELLS/uL and the “ABSOLUTE SEGMENTED NEUTROPHIL” value [4] was 795 CELLS/uL. The BASOPHIL [4] was 0%, the EOSINOPHIL [4] was 0.67% and the “ERYTHROCYTE COUNT” value [4] was 5.41 x10E6/uL. For the same molecule, the HEMATOCRIT [4] was 32.77%, the HEMOGLOBIN [4] was 13.13 G/DL and the “LEUKOCYTE COUNT” value [4] was 8.57 x10E3/uL. The LYMPHOCYTE [4] was 90%, the “MEAN CORPUSCULAR HEMOGLOBIN” value [4] was 24.33 pg and the “MEAN CORPUSCULAR HEMOGLOBIN CONCENTRATION” value [4] was 40.1 G/DL. The “MEAN CORPUSCULAR VOLUME” value [4] was 60.7 fL, the NEUTROPHIL [4] was 9% and the “NUCLEATED RED BLOOD CELLS” value [4] was 0.33 /100WBC. The “PLATELET COUNT” value [4] was 1098.67 x10E3/uL, the “ALANINE AMINOTRANSFERASE” value [3] was 32 u/L and the ALBUMIN [3] was 3.72 G/DL. For the same molecule, the “ALKALINE PHOSPHATASE” value [3] was 340 u/L, the “ASPARTATE AMINOTRANSFERASE” value [3] was 77.6 u/L and the “BLOOD UREA NITROGEN” value [3] was 6.8 mg/dL. For the same molecule, the CHLORIDE [3] was 110 MEQ/L, the CHOLESTEROL [3] was 66.4 mg/dL and the “CREATINE PHOSPHOKINASE” value [3] was 178.25 u/L. It also gave a CREATININE [3] of 0.26 mg/dL, a PHOSPHORUS [3] of 13.9 mg/dL and a POTASSIUM [3] of 6.42 MEQ/L. For the same molecule, the SODIUM [3] was 150.8 MEQ/L, the “TOTAL BILIRUBIN” value [3] was 0.16 mg/dL and the “ALANINE AMINOTRANSFERASE” value [4] was 70.33 u/L. For the same molecule, the ALBUMIN [4] was 4 G/DL, the “ALKALINE PHOSPHATASE” value [4] was 422.67 u/L and the “ASPARTATE AMINOTRANSFERASE” value [4] was 77.67 u/L. For the same molecule, the “CARBON DIOXIDE” value [4] was 32 mmol/L, the CHLORIDE [4] was 99.5 MEQ/L and the CHOLESTEROL [4] was 58.67 mg/dL. For the same molecule, the CREATININE [4] was 0.13 mg/dL, the “LACTATE DEHYDROGENASE” value [4] was 79 u/L and the LIPASE [4] was 12.33 u/L. For the same molecule, the PHOSPHORUS [4] was 9.27 mg/dL, the POTASSIUM [4] was 5.62 MEQ/L and the SODIUM [4] was 142.7 MEQ/L. The “TOTAL BILIRUBIN” value [4] was 0.2 mg/dL, the “URIC ACID” value [4] was 0.5 mg/dL and the BASOPHIL [5] was 0.51%. The EOSINOPHIL [5] was 0.62%, the “ERYTHROCYTE COUNT” value [5] was 8.14 x10E6/uL and the HEMATOCRIT [5] was 48.9%. For the same molecule, the HEMOGLOBIN [5] was 15.9 G/DL, the “LEUKOCYTE COUNT” value [5] was 10.63 x10E3/uL and the LYMPHOCYTE [5] was 82.51%. The “MEAN CORPUSCULAR HEMOGLOBIN” value [5] was 19.56 pg, the “MEAN CORPUSCULAR HEMOGLOBIN CONCENTRATION” value [5] was 32.5 G/DL and the “MEAN CORPUSCULAR VOLUME” value [5] was 60.18 fL. For the same molecule, the NEUTROPHIL [5] was 13.48%, the “PLATELET COUNT” value [5] was 1264.5 x10E3/uL and the “ALANINE AMINOTRANSFERASE” value [5] was 29.7 u/L. For the same molecule, the ALBUMIN [5] was 3.93 G/DL, the “ALKALINE PHOSPHATASE” value [5] was 205 u/L and the “ASPARTATE AMINOTRANSFERASE” value [5] was 68.5 u/L. The “BLOOD UREA NITROGEN” value [5] was 12.1 mg/dL, the CHLORIDE [5] was 109.6 MEQ/L and the CHOLESTEROL [5] was 55.2 mg/dL. For the same molecule, the “CREATINE PHOSPHOKINASE” value [5] was 206.4 u/L, the CREATININE [5] was 0.51 mg/dL and the PHOSPHORUS [5] was 11.24 mg/dL. The POTASSIUM [5] was 6.38 MEQ/L, the SODIUM [5] was 154.6 MEQ/L and the “TOTAL BILIRUBIN” value [5] was 0.21 mg/dL.
